Measurements published in patent US20230053540A1, “TREATMENT OF LIVER INJURY” (Massachusetts Institute of Technology, priority 2019, published 2023).

Test system: hepatocytes
Assay: Seq-Well scRNA-Seq of hepatocytes after APAP overdose (signature scores, DEG vs untreated)
Assay type: in vivo, mouse
[1] = cluster A96 (APAP, 96 h) vs other clusters, Wilcox
[2] = cluster A96, DEG between treatment (APAP and PH)

CC(=O)Nc1ccc(O)cc1 [APAP, acetaminophen]
avg_logFC Snx3 (cluster A48 (APAP, 48 h)): 0.2562 | avg_logFC Sord (cluster A48 (APAP, 48 h)): 0.3763 | avg_logFC St3gal5 (cluster A48 (APAP, 48 h)): 0.3766 | avg_logFC Stbd1 (cluster A48 (APAP, 48 h)): 0.2667 | avg_logFC Sult1a1 (cluster A48 (APAP, 48 h)): 0.3856 | avg_logFC Sult1d1 (cluster A48 (APAP, 48 h)): 0.5282 | avg_logFC Syvn1 (cluster A48 (APAP, 48 h)): 0.2867 | avg_logFC Tcea3 (cluster A48 (APAP, 48 h)): 0.3934 | avg_logFC Tef (cluster A48 (APAP, 48 h)): 0.3162 | avg_logFC Tmbim4 (cluster A48 (APAP, 48 h)): 0.3931 | avg_logFC Tmbim6 (cluster A48 (APAP, 48 h)): 0.3567 | avg_logFC Tmem219 (cluster A48 (APAP, 48 h)): 0.2647 | avg_logFC Ttc36 (cluster A48 (APAP, 48 h)): 0.6145 | avg_logFC Ttpa (cluster A48 (APAP, 48 h)): 0.4757 | avg_logFC Ttr (cluster A48 (APAP, 48 h)): 0.4205 | avg_logFC Ugt2b5 (cluster A48 (APAP, 48 h)): 0.6108 | avg_logFC Ugt2b36 (cluster A48 (APAP, 48 h)): 0.3503 | avg_logFC Upb1 (cluster A48 (APAP, 48 h)): 0.3631 | avg_logFC Usmg5 (cluster A48 (APAP, 48 h)): 0.4173 | avg_logFC Vnn3 (cluster A48 (APAP, 48 h)): 0.3054 | avg_logFC Vtn (cluster A48 (APAP, 48 h)): 0.3638 | avg_logFC Yipf3 (cluster A48 (APAP, 48 h)): 0.2702 | avg_logFC Zfp91 (cluster A48 (APAP, 48 h)): 0.3221 | pct.1, gene Abcc3 (cluster A96): 0.733 | pct.1, gene Acaa1b (cluster A96): 0.986 | pct.1, gene Acat1 (cluster A96): 0.917 | pct.1, gene Acot1 (cluster A96): 0.459 | pct.1, gene Agpat6 (cluster A96): 0.743 | pct.1, gene Agt (cluster A96): 0.912 | pct.1, gene Akr1d1 (cluster A96): 0.721 | pct.1, gene Aldh9a1 (cluster A96): 0.884 | pct.1, gene Aplp2 (cluster A96): 0.826 | pct.1, gene Apo17a (cluster A96): 0.559 | pct.1, gene Apoc2 (cluster A96): 0.901 | pct.1, gene Aqp9 (cluster A96): 0.801 | pct.1, gene Arl4a (cluster A96): 0.517 | pct.1, gene Asl (cluster A96): 0.896 | pct.1, gene Baat (cluster A96): 0.862 | pct.1, gene Bnip3 (cluster A96): 0.716 | pct.1, gene Cd36 (cluster A96): 0.299 | pct.1, gene Ces1e (cluster A96): 0.71 | pct.1, gene Cox5a (cluster A96): 0.813 | pct.1, gene Cox6a1 (cluster A96): 0.943 | pct.1, gene Cox8a (cluster A96): 0.737 | pct.1, gene Cpeb4 (cluster A96): 0.527 | pct.1, gene Cpox (cluster A96): 0.634 | pct.1, gene Cpt1a (cluster A96): 0.837 | pct.1, gene Creg1 (cluster A96): 0.985 | pct.1, gene Csad (cluster A96): 0.843 | pct.1, gene Ctage5 (cluster A96): 0.837 | pct.1, gene Cth (cluster A96): 0.944 | pct.1, gene Cxcl12 (cluster A96): 0.635 | pct.1, gene D4Wsu53e (cluster A96): 0.597 | pct.1, gene Decr2 (cluster A96): 0.813 | pct.1, gene Dhdh (cluster A96): 0.734 | pct.1, gene Etfdh (cluster A96): 0.811 | pct.1, gene Etnppl (cluster A96): 0.677 | pct.1, gene F5 (cluster A96): 0.858 | pct.1, gene Fmo1 (cluster A96): 0.606 | pct.1, gene G0s2 (cluster A96): 0.525 | pct.1, gene G6pc (cluster A96): 0.86 | pct.1, gene Gabarapl1 (cluster A96): 0.881 | pct.1, gene Gadd45b (cluster A96): 0.452 | pct.1, gene Gas5 (cluster A96): 0.68 | pct.1, gene Gm4952 (cluster A96): 0.663 | pct.1, gene Gsta2 (cluster A96): 0.522 | pct.1, gene Gstt3 (cluster A96): 0.541 | pct.1, gene Gyk (cluster A96): 0.616 | pct.1, gene Hmgcl (cluster A96): 0.871 | pct.1, gene Hmgcs1 (cluster A96): 0.858 | pct.1, gene Hpgd (cluster A96): 0.588 | pct.1, gene Hsd17b7 (cluster A96): 0.56 | pct.1, gene Hsd17b10 (cluster A96): 0.841 | pct.1, gene Igfbp1 (cluster A96): 0.826 | pct.1, gene Kif1b (cluster A96): 0.686 | pct.1, gene Lcat (cluster A96): 0.886 | pct.1, gene Mia3 (cluster A96): 0.81 | pct.1, gene Ndufa3 (cluster A96): 0.737 | pct.1, gene Ndufa7 (cluster A96): 0.818 | pct.1, gene Nr1i3 (cluster A96): 0.625 | pct.1, gene Oat (cluster A96): 0.653 | pct.1, gene Pon1 (cluster A96): 0.965 | pct.1, gene Por (cluster A96): 0.858 | pct.1, gene Ppp1r3b (cluster A96): 0.536 | pct.1, gene Ppp2r5a (cluster A96): 0.764 | pct.1, gene Ptms (cluster A96): 0.806 | pct.1, gene Pxmp4 (cluster A96): 0.687 | pct.1, gene Rdh16 (cluster A96): 0.494 | pct.1, gene Rdx (cluster A96): 0.824 | pct.1, gene Rgn (cluster A96): 0.899 | pct.1, gene Sc4mol (cluster A96): 0.781 | pct.1, gene Slc4a4 (cluster A96): 0.609 | pct.1, gene Slc25a20 (cluster A96): 0.671 | pct.1, gene Slco1a4 (cluster A96): 0.507 | pct.1, gene Snord118 (cluster A96): 0.564 | pct.1, gene Tgoln1 (cluster A96): 0.756 | pct.1, gene Tmed5 (cluster A96): 0.714 | pct.1, gene Tobi (cluster A96): 0.649 | pct.1, gene Tsc22d3 (cluster A96): 0.534 | pct.1, gene Zfp36l1 (cluster A96): 0.601 | pct.1, gene Zfp91 (cluster A96): 0.693 | Acaa1b avg_logFC [1]: 0.282 | Acat1 avg_logFC [1]: 0.2558 | Acot1 avg_logFC [1]: 0.3106 | Agpat6 avg_logFC [1]: 0.3143 | Agt avg_logFC [1]: 0.255 | Akr1d1 avg_logFC [1]: 0.2994 | Aldh9a1 avg_logFC [1]: 0.2585 | Apo17a avg_logFC [1]: 0.2518 | Apoc2 avg_logFC [1]: 0.2781 | Aqp9 avg_logFC [1]: 0.3178 | Arl4a avg_logFC [1]: 0.2706 | Asl avg_logFC [1]: 0.275 | Baat avg_logFC [1]: 0.2728 | Bnip3 avg_logFC [1]: 0.3208 | Cd36 avg_logFC [1]: 0.3129 | Ces1e avg_logFC [1]: 0.2566 | Cox5a avg_logFC [1]: 0.2728 | Cox6a1 avg_logFC [1]: 0.2746 | Cox8a avg_logFC [1]: 0.2519 | Cpeb4 avg_logFC [1]: 0.3011 | Cpox avg_logFC [1]: 0.3229 | Cpt1a avg_logFC [1]: 0.2626 | Creg1 avg_logFC [1]: 0.2517 | Csad avg_logFC [1]: 0.4207 | Ctage5 avg_logFC [1]: 0.2535 | Cth avg_logFC [1]: 0.2966 | Cxcl12 avg_logFC [1]: 0.2822 | D4Wsu53e avg_logFC [1]: 0.2928 | Decr2 avg_logFC [1]: 0.3018 | Dhdh avg_logFC [1]: 0.2626 | Etfdh avg_logFC [1]: 0.2639 | Etnppl avg_logFC [1]: 0.3154 | Fmo1 avg_logFC [1]: 0.265 | G0s2 avg_logFC [1]: 0.2656 | G6pc avg_logFC [1]: 0.2541 | Gabarapl1 avg_logFC [1]: 0.2932 | Gadd45b avg_logFC [1]: 0.2598 | Gas5 avg_logFC [1]: 0.2823 | Gm4952 avg_logFC [1]: 0.2581 | Gsta2 avg_logFC [1]: 0.311 | Gstt3 avg_logFC [1]: 0.3026 | Gyk avg_logFC [1]: 0.3134 | Hmgcl avg_logFC [1]: 0.2744 | Hmgcs1 avg_logFC [1]: 0.3251 | Hpgd avg_logFC [1]: 0.3412 | Hsd17b7 avg_logFC [1]: 0.3028 | Hsd17b10 avg_logFC [1]: 0.2802 | Kif1b avg_logFC [1]: 0.2961 | Leaf avg_logFC [1]: 0.2616 | Mia3 avg_logFC [1]: 0.2605 | Ndufa3 avg_logFC [1]: 0.2743 | Ndufa7 avg_logFC [1]: 0.26 | Nr1i3 avg_logFC [1]: 0.3481 | Oat avg_logFC [1]: 0.4904 | Pon1 avg_logFC [1]: 0.2899 | Ppp1r3b avg_logFC [1]: 0.251 | Ppp2r5a avg_logFC [1]: 0.3505 | Ptms avg_logFC [1]: 0.2863 | Pxmp4 avg_logFC [1]: 0.2555 | Rdh16 avg_logFC [1]: 0.3477 | Sc4mol avg_logFC [1]: 0.3361 | Slc4a4 avg_logFC [1]: 0.2977 | Slc25a20 avg_logFC [1]: 0.2507 | Slco1a4 avg_logFC [1]: 0.3049 | Snord118 avg_logFC [1]: 0.3782 | Tgoln1 avg_logFC [1]: 0.2809 | Tmed5 avg_logFC [1]: 0.2523 | Tobi avg_logFC [1]: 0.2958 | Tsc22d3 avg_logFC [1]: 0.3362 | Zfp36l1 avg_logFC [1]: 0.2964 | Zfp91 avg_logFC [1]: 0.2775 | avg_logFC, gene Abcc3 [2]: 0.2743 | avg_logFC, gene Acaa1b [2]: 0.282 | avg_logFC, gene Acat1 [2]: 0.2558 | avg_logFC, gene Acot1 [2]: 0.3106 | avg_logFC, gene Agpat6 [2]: 0.3143 | avg_logFC, gene Agt [2]: 0.255 | avg_logFC, gene Akr1d1 [2]: 0.2994 | avg_logFC, gene Aldh9a1 [2]: 0.2585 | avg_logFC, gene Aplp2 [2]: 0.2903 | avg_logFC, gene Apo17a [2]: 0.2518 | avg_logFC, gene Apoc2 [2]: 0.2781 | avg_logFC, gene Aqp9 [2]: 0.3178 | avg_logFC, gene Arl4a [2]: 0.2706 | avg_logFC, gene Asl [2]: 0.275 | avg_logFC, gene Baat [2]: 0.2728 | avg_logFC, gene Bnip3 [2]: 0.3208 | avg_logFC, gene Cd36 [2]: 0.3129 | avg_logFC, gene Ces1e [2]: 0.2566 | avg_logFC, gene Cox5a [2]: 0.2728 | avg_logFC, gene Cox6a1 [2]: 0.2745 | avg_logFC, gene Cox8a [2]: 0.2519 | avg_logFC, gene Cpeb4 [2]: 0.3011 | avg_logFC, gene Cpox [2]: 0.3229 | avg_logFC, gene Cpt1a [2]: 0.2626 | avg_logFC, gene Creg1 [2]: 0.2517 | avg_logFC, gene Csad [2]: 0.4207 | avg_logFC, gene Ctage5 [2]: 0.2535 | avg_logFC, gene Cth [2]: 0.2966 | avg_logFC, gene Cxcl12 [2]: 0.2821 | avg_logFC, gene D4Wsu53e [2]: 0.2928
